# Laboratory results reported in patent US20250275950A1, “RIFAXIMIN AND N-ACETYL CYSTEINE FORMULATIONS” (Cedars-Sinai Medical Center, priority 2022, published 2025).
# Tested on: E. Coli and Klebsiella
# Test: In vitro dilution growth/cidal experiments
# Type: cell-based
# Procedure: In vitro dilution growth/cidal experiments were conducted on E. Coli and Klebsiella to determine doses of rifaximin and NAC, including lowest doses of rifaximin and lowest doses of NAC.
"MIC (Escherichia coli, with NAC concentration of 0.125 mg/mL, E. Coli and Klebsiella, organism of the value not specified, read-out: minimal inhibitory concentration (MIC) for rifaximin) [µg/mL]",SMILES,effect of NAC on effectiveness of rifaximin in killing E. coli and Klebsiella
,"CC(=O)N[C@@H](CS)C(=O)O [NAC, N-acetylcysteine]",improves the effectiveness of rifaximin
4,CO[C@H]1/C=C/O[C@@]2(C)Oc3c(C)c(O)c4c(O)c(c5c(nc6cc(C)ccn65)c4c3C2=O)NC(=O)/C(C)=C\C=C\[C@H](C)[C@H](O)[C@@H](C)[C@@H](O)[C@@H](C)[C@H](OC(C)=O)[C@@H]1C [rifaximin],
